Entries after “also recorded” stand apart in the source; their conditions may differ.
Key:
[1] = system: BV2 microglial cells stimulated with LPS; experiment: IL-6 level by ELISA in BV2 microglial cells stimulated with LPS; format: cell-based; conditions: for effect on IL-6 level (pro-inflammatory activity): 0–5 μM, LPS-stimulated BV2, in words; for IL-6 expression (ELISA): 5 μM, LPS-stimulated BV2
[2] = system: BV2 microglial cells stimulated with LPS; experiment: Nitric oxide level in BV2 microglial cells stimulated with LPS; format: cell-based; conditions: highest reduction among analogs (Figure S8)
[3] = system: BV2 microglial cells stimulated with LPS; experiment: IL-10 level by ELISA in BV2 microglial cells stimulated with LPS; format: cell-based; conditions: for effect on IL-10 levels: 0–5 μM, LPS-stimulated BV2, in words; for levels of IL-10 (ELISA): LPS-stimulated BV2, 5 μM implied; for expression of the anti-inflammatory cytokines: 5 μM, in words
[4] = format: in vivo, mouse; conditions: for concentration of metabolite formed, detected in plasma: mice given CBG 20 mg/kg, after 0.5 h
[5] = system: human liver microsomes (HLM); experiment: CBG metabolism by human liver microsomes, targeted mass spectrometry; format: in vitro ADME
[6] = molecular target: CYP3A4 (Homo sapiens, UniProt P08684); experiment: Spectral
CYP3A4, sequence (P08684 whole entry): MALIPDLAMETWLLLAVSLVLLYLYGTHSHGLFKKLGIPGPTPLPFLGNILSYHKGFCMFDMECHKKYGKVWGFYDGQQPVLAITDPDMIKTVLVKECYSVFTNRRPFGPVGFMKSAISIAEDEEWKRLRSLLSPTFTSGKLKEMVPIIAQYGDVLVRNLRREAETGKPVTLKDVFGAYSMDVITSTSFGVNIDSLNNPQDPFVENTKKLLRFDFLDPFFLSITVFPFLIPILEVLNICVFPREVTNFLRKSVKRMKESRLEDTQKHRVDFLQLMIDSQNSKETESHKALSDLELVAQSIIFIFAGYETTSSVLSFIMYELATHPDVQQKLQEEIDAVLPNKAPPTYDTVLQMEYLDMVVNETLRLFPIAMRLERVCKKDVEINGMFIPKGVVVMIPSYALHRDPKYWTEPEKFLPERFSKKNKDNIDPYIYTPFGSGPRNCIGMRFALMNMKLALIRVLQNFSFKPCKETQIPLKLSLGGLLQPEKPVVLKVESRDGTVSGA

[7] = after 0.5 h; cited from earlier work
[8] = system: CYP2C8; experiment: Spectral; conditions: presence versus absence of CBG
[9] = system: CYP2C8; conditions: human
[10] = molecular target: T1, CYP2D6 (Homo sapiens, UniProt P10635)
T1 sequence (P10635 whole entry): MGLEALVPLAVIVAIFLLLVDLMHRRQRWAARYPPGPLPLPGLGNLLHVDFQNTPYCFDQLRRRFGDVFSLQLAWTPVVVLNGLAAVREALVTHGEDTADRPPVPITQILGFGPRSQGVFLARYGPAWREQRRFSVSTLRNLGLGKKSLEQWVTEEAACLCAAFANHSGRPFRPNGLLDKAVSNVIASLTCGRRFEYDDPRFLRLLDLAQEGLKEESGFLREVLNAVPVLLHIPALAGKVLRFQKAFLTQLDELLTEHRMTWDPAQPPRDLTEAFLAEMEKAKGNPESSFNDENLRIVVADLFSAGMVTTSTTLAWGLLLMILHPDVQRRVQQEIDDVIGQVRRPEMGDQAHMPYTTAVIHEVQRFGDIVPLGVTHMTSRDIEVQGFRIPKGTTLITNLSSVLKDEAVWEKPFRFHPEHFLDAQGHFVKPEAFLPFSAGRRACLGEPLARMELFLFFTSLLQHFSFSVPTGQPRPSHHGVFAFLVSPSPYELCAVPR

[11] = molecular target: T1, CYP2D6; experiment: biochemical
[12] = system: CYP2J2, 3A4, 2D6, 2C9 and 2C8; format: in vitro ADME; conditions: human

## CCCCCc1cc(O)c(C/C=C(\C)CCC(O)C(C)(C)O)c(O)c1 (stereo not shown) [carmagerol, 6′,7′-dihydroxy CBG]
[1]
  effect on IL-6 level (pro-inflammatory activity): lowering in IL-6 expression; also recorded: highest reduction in the pro-inflammatory activity
  IL-6 expression (ELISA): 307.8±159.1
[2]
  % NO level: 60.0±6.03%
[3]
  effect on IL-10 levels: concentration dependent increase in IL-10 levels
  levels of IL-10 (ELISA): 159.5±16.7

## CCCCCc1cc(O)c(C/C=C(\C)CCC2OC2(C)C)c(O)c1 (stereo not shown) [6′,7′-epoxy-CBG]
[1]
  effect on IL-6 level (pro-inflammatory activity): lowering in IL-6 expression
[4]
  concentration of metabolite formed, detected in plasma: 7.5 nM
[3]
  effect on IL-10 levels: concentration dependent increase in IL-10 levels

## CCCCCc1cc(O)c2c(c1)OC(C)(CCC=C(C)C)C(O)C2 (stereo not shown) [cyclo-CBG]
[4]
  concentration of metabolite formed, detected in plasma: 1500 nM
[4]; plasma of CBG treated mice
  amount of cyclo-CBG relative to 6′,7′-epoxy-CBG in plasma: ~ 100 times
[5]
  amount of cyclo-CBG produced relative to 6′,7′-epoxy-CBG: ~ 100 fold

## CCCCCc1cc(O)c(CC(O)C(C)(O)CCC=C(C)C)c(O)c1 (stereo not shown) [2′,3′-dihydroxy-CBG, 2′,3′-dihydroxy CBG]
[1]
  effect on IL-6 level (pro-inflammatory activity): concentration dependent reduction in IL-6 level
[3]
  expression of the anti-inflammatory cytokines: maximum expression of the anti-inflammatory cytokines

## C[C@]12CC[C@H]3[C@@H](CCC4=CC(=O)CC[C@@]43C)[C@@H]1CC[C@@H]2O [TST, testosterone, reference compound]
[6]; direct binding, TST versus CBG
  TST binds more strongly as compared to CBG: ~5 times

## CCCCCc1cc(O)c(C/C=C(\C)CC/C=C(\C)CCC=C(C)C)c(O)c1 [sCBG, sesqicannabigerol]
[1]
  effect on IL-6 level (pro-inflammatory activity): concentration dependent reduction in IL-6 level
[1]; inflammatory cytokines in BV2 model, in words
  bioactivity compared to CBG metabolites having polar functional groups: does not significant bioactivity

## C=C(C)[C@@H]1CCC(C)=C[C@H]1c1c(O)cc(CCCCC)cc1O [CBD, cannabidiol]
[7]
  level in human blood plasma: ~ 0.14 μM

## CCCCCc1cc(O)c2c(c1)OC(C)(C)[C@@H]1CCC(C)=C[C@@H]21 [THC, Δ^9-tetrahydrocannabinol]
[7]
  level in human blood plasma: ~ 0.06 μM

## CC1=C(/C=C/C(C)=C/C=C/C(C)=C/C(=O)O)C(C)(C)CCC1 [RTA, all trans-retinoic acid]
[8]
  increase of Ks on addition of RTA to CBG-bound CYP: ~ 1.3 times
  increase of ΔAmax on addition of RTA to CBG-bound CYP: ~ 1.2 times

## CCCCCc1cc(O)c(C/C=C(\C)CCC=C(C)C)c(O)c1 [CBG, Cannabigerol]
[1]
  effect on IL-6 level (pro-inflammatory activity): concentration dependent reduction in IL-6 level
  IL-6 expression (ELISA): 414.2±75.2
[4]; female, mouse, in vivo
  concentration at 0.5 h: 500 to 700 nM
  concentration at 2 h: ~50 nM
[9]
  Ks of CBG higher than for CYP2J2: ~3 times
[10]
  Ks for CBG binding lower than for TDZ binding: ~3.5 times
  Ks of CBG higher than for CYP2J2: ~3 times
[11]
  Ki: 10 to 20 µM
[2]
  % NO level: 64.1±5.9%
[12]
  Km for formation of cyclo-CBG, CYP2J2 relative to 2D6 and 2C8: 1.5–2 times
[6]
  Ki: 10 to 20 µM
[3]
  effect on IL-10 levels: concentration dependent increase in IL-10 levels
  expression of the anti-inflammatory cytokines: maximum expression of the anti-inflammatory cytokines
  levels of IL-10 (ELISA): 236.03±12.35
